Source: paper PMC9544596 (Journal of Clinical Pharmacology, 2022)

How the values were obtained:
[1] = Population pharmacokinetic model of vancomycin
[2] = system: Enterococcus spp.; assay: Vancomycin MIC of cultured clinical isolates; type: cell-based

- CL, bootstrap of final model estimate ([1]; 1000 bootstrap replicates): 1.23 L/h
- Vd, bootstrap of final model estimate ([1]; 1000 bootstrap replicates): 66.51 L
- θ1, bootstrap of final model estimate ([1]; 1000 bootstrap replicates): 1.00
- Vd, final model estimate ([1]; Thai GFR not indexed to BSA final model): 67.46 L
- MIC50 ([2]; Enterococcus, read-out: MIC50 (min-max)): 1 µg/mL
- MIC50 (min-max) ([2]; patients without shock, 6 isolates): 1 mg/L
- MIC50 (min-max) ([2]; septic shock patients, 5 isolates): 1 mg/L
Structure (SMILES): CN[C@H](CC(C)C)C(=O)N[C@H]1C(=O)N[C@@H](CC(N)=O)C(=O)N[C@H]2C(=O)N[C@H]3C(=O)N[C@H](C(=O)N[C@H](C(=O)O)c4cc(O)cc(O)c4-c4cc3ccc4O)[C@H](O)c3ccc(c(Cl)c3)Oc3cc2cc(c3O[C@@H]2O[C@H](CO)[C@@H](O)[C@H](O)[C@H]2O[C@H]2C[C@](C)(N)[C@H](O)[C@H](C)O2)Oc2ccc(cc2Cl)[C@H]1O [vancomycin]
